The text below walks through data of patent US8927300B2, “Method and compositions for the detection of protein glycosylation” (California Institute of Technology, priority 2003, dated 2015).

Where a chain is given by its changes, count along the chain named. Entries after “also recorded” stand apart in the source; their conditions may differ.

One assay concerns the target T1, Y289L GalT (Bos taurus, UniProt P08037, Y289L).
T1 construct: made in house
T1 sequence (P08037 1-402 Y289L): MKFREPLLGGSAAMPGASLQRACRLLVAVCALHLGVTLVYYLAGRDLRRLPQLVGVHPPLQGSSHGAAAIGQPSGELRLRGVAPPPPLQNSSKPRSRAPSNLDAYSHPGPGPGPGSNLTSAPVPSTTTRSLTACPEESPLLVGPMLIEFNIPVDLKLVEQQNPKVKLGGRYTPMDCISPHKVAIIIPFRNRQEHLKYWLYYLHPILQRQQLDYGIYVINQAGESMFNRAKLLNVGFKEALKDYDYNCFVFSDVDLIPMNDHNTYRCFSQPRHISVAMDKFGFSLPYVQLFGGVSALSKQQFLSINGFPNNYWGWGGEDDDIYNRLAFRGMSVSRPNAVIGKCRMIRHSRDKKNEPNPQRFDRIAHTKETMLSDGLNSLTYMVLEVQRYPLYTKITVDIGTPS
In words: Transfer of keto-sugar from labeling agent 1 to O-GlcNAc peptide by Y289L mutant GalT, LC-MS. It is filed as biochemical. The following applies: peptide TAPTS(O-GlcNAc)TIAPG, 6 h at 4° C., diammonium salt. The protocol:
The peptide TAPTS(O-GlcNAc)TIAPG (SEQ ID NO: 1) (10 μM) was dissolved in 25 mM MOPS buffer, pH 6.7 containing 5 mM MnCl2 and 8 μM reference peptide (ThermoFinnigan, San Jose, Calif.). Labeling agent 1 and mutant Y289L GalT were added to final concentrations of 1 mM and 100 ng/μL, respectively. Prior to enzyme addition, an aliquot of the—reaction was removed as an initial time point for LC-MS analysis. Reactions were incubated at 4° C. for 6 h, after which an aliquot of the reaction mixture was removed for product analysis by LC-MS. The remainder of the reaction was diluted 5-fold into PBS (final concentration: 10.1 mM Na2HPO4, 1.76 mM KH2HPO4, […], 2.7 mM KCl, pH 6.7), and N-(aminooxyacetyl)-N′-(D-biotinoyl) hydrazine (Molecular Probes, Eugene, Oreg.) was added to a final concentration of 12 mM. After 8 h at 25° C., the extent of biotin-oxime product was measured by LC-MS. […] Labeling reactions with wild-type GalT were performed identically, with the exception that reactions were incubated at 37° C. for 12 h. […]
Base peak chromatograms are shown before and 6 h after the addition of ketone analogue 1 and Y289L GalT. […] For reaction with detection agent aminooxy biotin, formation of the oxime product was monitored using an extracted ion chromatogram within the mass range 1319.0-1321.0 m/z and 1633.0-1635.5 m/z, which was generated post-acquisition via the Xcalibur™ software. […]

The next assay concerns the target T2, GalT (Bos taurus, UniProt P08037).
T2 sequence (P08037 1-402): T1 sequence (P08037 1-402 Y289L) with L289Y
The following applies: relative to Gal; cited from earlier work.

Assay [1] concerns O-GlcNAc pendant moiety on α-crystallin. Nature of the assay: Western / lectin blotting of α-crystallin with existing O-GlcNAc detection reagents. It is filed as binding, bovine. The settings on record: blot, chemiluminescence, even when 10 μg of α-crystallin was used. The protocol: α-Crystallin, and appropriate positive and negative controls were resolved by 15% SDS-PAGE. All Western blotting steps were performed at RT unless otherwise noted. […] RL-2 antibody, at a concentration of 1:2000, was subsequently added in blocking buffer and blots were incubated for 1.5-2 h. Blots were then rinsed with hsTBST and washed 6×5 min. Secondary goat anti-mouse IgG antibody was applied at a concentration of 1:10,000 in hsTBS-T containing 1% BSA. After 1 h, blots were rinsed and washed as described before chemiluminescence detection on film (FIG. 11A). Western blotting with the CTD110.6 antibody was performed according to manufacturer's recommendations. Briefly, α-crystallin and controls were transferred to PVDF and washed 2×15 min with TBS-0.1% tween-20 (TBST). Blots were blocked in TBST containing 3% BSA for 1 h, rinsed 2× with TBST, and probed with CTD110.6 (1:2500) in blocking buffer for 1 h. Blots were then rinsed 2× with TBST and washed 2×5 min. Secondary goat anti-mouse IgM antibody was applied at a concentration of 1:10,000 in blocking buffer for 1 h, and blots were subsequently rinsed with TBST and washed 5×5 min before chemiluminescence detection on film (FIG. 11B).
WGA western blotting was performed essentially as described (25, 27). Briefly, α-crystallin and controls were resolved by 15% SDS-PAGE and electrophoretically transferred to nitrocellulose. […]

With “Uridine 5′-diphospho-2-acetonyl-2deoxy-a-D-galactopyranose diammonium salt [Labeling agent 1]”, the “conversion of peptide to ketone-labeled product” value at Y289L GalT is given as “Complete conversion”.

With `OCC1OC(O)CC(O)[C@H]1O` (stereo partly drawn) [2-deoxy-Gal], at GalT, the “rate of transfer by GalT” value was “rates comparable to Gal”.

B1: WGA: wheat-germ agglutinin lectin, existing method to detect GlcNAc (protein)
chain: QRCGEQGSNMECPNNLCCSQYGYCGMGGDYCGKGCQNGACWTSKRCGSQAGGATCTNNQCCSQYGYCGFGAEYCGAGCQGGPCRADIKCGSQAGGKLCPNNLCCSQWGFCGLGSEFCGGGCQSGACSTDKPCGKDAGGRVCTNNYCCSKWGSCGIGPGYCGAGCQSGGCDG
Regarding B1, the “detection of O-GlcNAc on α-crystallin” value in assay [1] is “failed to detect; also recorded: could not detect”.
